# Test results reported in patent publication US20110112086A1, “PYRIDINONE ANALOGS” (CYLENE PHARMACEUTICALS, INC., priority 2006, published 2011).
# B1: 8762NT: nucleic acid ligand derived from human ribosomal DNA: CGGAGGGCGCGCGGGTCGGGGCGGCGGCGGCGGCGGCGGTGGCGGCGGCGGCGGGGGCGGCGGG (nucleic acid)
# DNA: CGGAGGGCGCGCGGGTCGGGGCGGCGGCGGCGGCGGCGGTGGCGGCGGCGGCGGGGGCGGCGGG
# modifications: chemistry not given here
# Test system: HCT-116
# Test: HCT-116 MTS cell viability assay
# Type: cell-based
# Conditions: Homo sapiens, HCT-116 cells
row,Molecule,IC50 [µM]
1,Cn1c2ccccc2n2c3sccc3c(=O)c(C(=O)NCCN3CCCC3)c12,3.2
2,Cn1c2cc3ccccc3cc2n2c3sccc3c(=O)c(C(=O)NCCN3CCCC3)c12,0.3
3,CCOC(=O)c1c(=O)c2ccsc2n2c1[nH]c1cc3ccccc3cc12,4
4,CCOC(=O)c1c(=O)c2ccsc2n2c1[nH]c1ccccc12,10
5,O=C(NCCN1CCCC1)c1c(=O)c2cc(N3CCCC3)sc2n2c1sc1ccccc12,0.05
6,CCOC(=O)c1c(=O)c2ccsc2n2c1sc1ccccc12,9.8
7,O=C(NCCN1CCCC1)c1c(=O)c2ccsc2n2c1sc1ccccc12,0.04
8,O=C(NCCN1CCCC1)c1c(=O)c2cc(Cl)sc2n2c1sc1ccccc12,0.01
9,CCOC(=O)c1c(=O)c2cc(Cl)sc2n2c1sc1ccccc12,10
10,O=C(NCCN1CCOCC1)c1c(=O)c2ccsc2n2c1sc1ccccc12,2.1
11,O=C(NCc1ccccn1)c1c(=O)c2ccsc2n2c1sc1ccccc12,2.05
12,CCOC(=O)c1c(=O)c2cc(Br)sc2n2c1sc1ccccc12,10

# Target: T1, nucleolin (Homo sapiens, UniProt P19338)
# T1 construct: without the N-terminal acidic stretches domain
# T1 sequence (P19338 284-710 limits assumed): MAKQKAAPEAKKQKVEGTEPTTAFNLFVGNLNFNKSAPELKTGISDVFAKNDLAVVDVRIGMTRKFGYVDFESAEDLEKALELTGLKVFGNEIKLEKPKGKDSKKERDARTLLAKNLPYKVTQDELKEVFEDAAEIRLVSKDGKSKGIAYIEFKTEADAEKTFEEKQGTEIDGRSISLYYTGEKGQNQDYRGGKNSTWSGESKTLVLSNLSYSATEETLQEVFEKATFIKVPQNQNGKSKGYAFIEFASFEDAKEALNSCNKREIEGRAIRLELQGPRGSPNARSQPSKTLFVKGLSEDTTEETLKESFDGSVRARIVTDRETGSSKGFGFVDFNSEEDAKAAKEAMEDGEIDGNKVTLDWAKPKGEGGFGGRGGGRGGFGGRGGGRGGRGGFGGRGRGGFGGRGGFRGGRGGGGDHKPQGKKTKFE
# Test: Nucleolin/nucleic acid ligand gel retardation binding assay
# Parameters: key: A “+” represents the weakest nucleolin affinity; a “++++” represents the strongest nucleolin affinity
# Conditions: relative affinity of nucleic acid ligand for recombinant nucleolin (MBP fusion)
# Description: The following assays can be used to assess the effects of compounds on interactions between nucleolin and nucleic acid ligands capable of forming quadruplex (QP) and hairpin (HP) secondary structures. Nucleic acid ligands tested were a cMyc QP DNA having nucleotide sequence 5′-[…]-3′ and a HP pre-rRNA region to which nucleolin binds, having the sequence 5′-[…]-3′. In the assays, recombinant nucleolin (˜250 nM), which has been fused to maltose binding protein, and has the sequence under accession number NM_005381 without the N-terminal acidic stretches domain, is incubated with each of the two ^32P-labeled nucleic acid ligands (10 or 250 nM). Nucleolin and the nucleic acid ligand are incubated in the presence or absence of a test compound 7 in an incubation buffer (12.5 mM Tris, pH 7.6, 60 mM KCl, 1 mM MgCl2, 0.1 mM EDTA, 1 mM DTT, 5% glycerol, 0.1 mg/ml BSA) for 30 minutes at room temperature.
# The resulting complexes are separated on a 6% DNA retardation gel using 0.5×TBE with 20 mM KCl as a running buffer. The assay also can be conducted using nucleic acid ligands derived from human ribosomal DNA, whereby one can identify a compound that selectively modulates formation of a nucleolin/nucleic acid complex that depends on the conformation of the nucleic acid. Sequences of suitable nucleic acids are shown in the preceding example. […] A “+” represents the weakest nucleolin affinity and a “++++” represents the strongest nucleolin affinity. […] Using nucleic acids such as these having known conformational properties, one can identify a compound such as the compounds described herein that selectively interferes with binding of nucleolin to a particular quadruplex structure.
row,Molecule,Affinity for Nucleolin
1,8511NT: nucleic acid ligand derived from human ribosomal DNA: GGGGGTGGGCGGGCGGGGCCGGGGGTGGG (chemistry not given here) [Compound 8511NT],++++
2,8749NT: nucleic acid ligand derived from human ribosomal DNA: GGGAGGGCGCGCGGGTCGGGG (chemistry not given here) [Compound 8749NT],+
3,6183NT: nucleic acid ligand derived from human ribosomal DNA: GGGTCGGGGGCGGTGGTGGGCCCGCGGGGG (chemistry not given here) [Compound 6183NT],+
4,11028NT: nucleic acid ligand derived from human ribosomal DNA: GGGGCGCGGCGGGGGGAGAAGGGTCGGGGCGGCAGGGG (chemistry not given here) [Compound 11028NT],+
5,7733T: nucleic acid ligand derived from human ribosomal DNA: GGGAGGGGCACGGGCCGGGGGCGGGACGGG (chemistry not given here) [Compound 7733T],+
6,1196NT: nucleic acid ligand derived from human ribosomal DNA: GGGTGGACGGGGGGGCCTGGTGGGG (chemistry not given here) [Compound 1196NT],+
7,B1,++++
